# Results taken from EPA's ToxRefDB 2.
# How the values were obtained:
# primate [1] = conditions: Sub-acute repeat dose toxicity; Oral; Gavage/Intubation; dose end: 5 day; group: systemic; systemic / clinical chemistry / bilirubin / total bilirubin + systemic / in life observation / clinical signs / abnormal feces + systemic / …
# rat [2] = conditions: Sub-acute repeat dose toxicity; sprague dawley; Oral; Gavage/Intubation; dose end: 14 day; group: systemic; systemic / hematology / erythrocyte (rbc) count differential / erythrocyte (rbc) + systemic / hematology / fibrinogen / fibrinogen + …
# primate [3] = conditions: Sub-acute repeat dose toxicity; Oral; Gavage/Intubation; dose end: 9 day; group: systemic; systemic / clinical chemistry / [other] / [other] + systemic / clinical chemistry / alanine aminotransferase (alt/sgpt) / alanine …
# rat [4] = conditions: Sub-acute repeat dose toxicity; sprague dawley; Oral; Gavage/Intubation; dose end: 28 day; group: systemic; systemic / in life observation / body weight / body weight + systemic / in life observation / clinical signs / feces, discoloration + …
# primate [5] = conditions: Sub-acute repeat dose toxicity, Oral, Gavage/Intubation, dose end: 30 day, group: systemic
# primate [6] = conditions: Sub-acute repeat dose toxicity; Oral; Gavage/Intubation; dose end: 8 day; group: systemic; systemic / in life observation / clinical signs / emesis
# mouse [7] = conditions: Sub-acute repeat dose toxicity; Oral; Gavage/Intubation; dose end: 14 day; group: systemic; systemic / clinical chemistry / [other] / [other] + systemic / clinical chemistry / cytochrome p450, nos / cytochrome p450, nos + systemic…
# rat [8] = conditions: Sub-acute repeat dose toxicity, sprague dawley, Oral, Gavage/Intubation, dose end: 14 day, group: systemic
# primate [9] = conditions: Sub-acute repeat dose toxicity, Oral, Gavage/Intubation, dose end: 34 day, group: systemic
# rat [10] = conditions: Sub-acute repeat dose toxicity; sprague dawley; Oral; Gavage/Intubation; dose end: 14 day; group: systemic; systemic / clinical chemistry / [other] / [other] + systemic / clinical chemistry / 5' nucleotidase / 5' nucleotidase + systemic / clinical …
# rat [11] = conditions: Sub-acute repeat dose toxicity, sprague dawley, Oral, Gavage/Intubation, dose end: 34 day, group: systemic
# primate [12] = conditions: Sub-acute repeat dose toxicity; Oral; Gavage/Intubation; dose end: 4 day; group: systemic; systemic / clinical chemistry / chloride / chlorine + systemic / clinical chemistry / cholesterol / cholesterol + systemic / clinical …
# mouse [13] = conditions: Sub-acute repeat dose toxicity; Oral; Gavage/Intubation; dose end: 14 day; group: systemic; systemic / clinical chemistry / [other] / [other] + systemic / clinical chemistry / cytochrome p450, nos / cytochrome p450, nos + systemic…; remark: listed apart in the source
# mouse [14] = conditions: Sub-acute repeat dose toxicity, Oral, Gavage/Intubation, dose end: 14 day, group: systemic
# rat [15] = conditions: Sub-acute repeat dose toxicity; sprague dawley; Oral; Gavage/Intubation; dose end: 8 day; group: systemic; systemic / clinical chemistry / potassium / potassium + systemic / in life observation / body weight / body weight + systemic / clinical …
# dog = conditions: Sub-acute repeat dose toxicity; beagle; Oral; Capsule; dose end: 1 month; group: systemic; systemic / in life observation / clinical signs / defecation (diarrhea) + systemic / in life observation / clinical signs / emesis + …
# rat [16] = conditions: Sub-acute repeat dose toxicity, sprague dawley, Oral, Gavage/Intubation, dose end: 28 day, group: systemic
# [17] = systemic / in life observation / mortality / mortality + systemic / clinical chemistry / [other] / [other] + systemic / hematology / …
# [18] = systemic / pathology gross / full gross necropsy / hemorrhage + systemic / pathology gross / full gross necropsy / lesion(s) (nos)
# [19] = systemic / clinical chemistry / cholesterol / cholesterol + systemic / clinical chemistry / globulins / globulins + systemic / clinical …
# [20] = systemic / organ weight / liver / absolute + systemic / clinical chemistry / hepatic mixed function oxidase (mfo) assay / hepatic mixed …
# [21] = systemic / organ weight / liver / absolute + systemic / in life observation / clinical signs / arrhythmia + systemic / in life observation…
# [22] = systemic / clinical chemistry / hepatic mixed function oxidase (mfo) assay / hepatic mixed function oxidase (mfo) assay
# [23] = systemic / hematology / erythrocyte (rbc) count differential / erythrocyte (rbc) + systemic / in life observation / mortality / mortality + …
# [24] = systemic / clinical chemistry / [other] / [other] + systemic / clinical chemistry / cytochrome p450, nos / cytochrome p450, nos + systemic…
# [25] = systemic / organ weight / liver / relative to body weight
# [26] = systemic / clinical chemistry / glucose / glucose + systemic / clinical chemistry / cholesterol / cholesterol
# [27] = systemic / clinical chemistry / glucose / glucose + systemic / hematology / platelet / platelet + systemic / pathology microscopic / liver…
smiles,measurement,setting,value
NC(=O)N1C(=O)C(C(=O)c2ccc(F)s2)c2cc(F)c(Cl)cc21 (stereo not drawn),LEL,primate [1],30 mg/kg/day
same,LOAEL,primate [1],> 30 mg/kg/day
same,NEL,primate [1],< 30 mg/kg/day
same,NOAEL,primate [1],≥ 30 mg/kg/day
same,LEL,rat [2],30 mg/kg/day
same,LOAEL,rat [2],> 30 mg/kg/day
same,NEL,rat [2],10 mg/kg/day
same,NOAEL,rat [2],≥ 30 mg/kg/day
same,LEL,primate [3],2 mg/kg/day
same,LOAEL,primate [3],> 20 mg/kg/day
same,NEL,primate [3],< 2 mg/kg/day
same,NOAEL,primate [3],≥ 20 mg/kg/day
same,LEL,rat [4],3 mg/kg/day
same,LOAEL,rat [4],> 20 mg/kg/day
same,NEL,rat [4],< 3 mg/kg/day
same,NOAEL,rat [4],≥ 20 mg/kg/day
same,LOAEL,primate [5]; [17],> 10 mg/kg/day
same,NOAEL,primate [5]; [17],≥ 10 mg/kg/day
same,LEL,primate [5]; [18],1 mg/kg/day
same,NEL,primate [5]; [18],< 1 mg/kg/day
NC(=O)N(O)Cc1ccc2c(c1)CCCN2CCCc1ccccc1,LEL,primate [6],150 mg/kg/day
same,LOAEL,primate [6],> 150 mg/kg/day
same,NEL,primate [6],< 150 mg/kg/day
same,NOAEL,primate [6],≥ 150 mg/kg/day
same,LEL,mouse [7],200 mg/kg/day
same,LOAEL,mouse [7],> 200 mg/kg/day
same,NEL,mouse [7],< 200 mg/kg/day
same,NOAEL,mouse [7],≥ 200 mg/kg/day
same,LOAEL,rat [8]; [19],> 100 mg/kg/day
same,NEL,rat [8]; [19],10 mg/kg/day
same,NOAEL,rat [8]; [19],≥ 100 mg/kg/day
same,LEL,rat [8]; systemic / clinical chemistry / triglycerides / triglycerides + systemic / organ weight / liver / relative to body weight + systemic / …,32 mg/kg/day
same,LEL,primate [9]; [20],5 mg/kg/day
same,NEL,primate [9]; [20],< 5 mg/kg/day
same,LOAEL,primate [9]; [21],> 100 mg/kg/day
same,NOAEL,primate [9]; [21],≥ 100 mg/kg/day
same,LEL,rat [10],200 mg/kg/day
same,LOAEL,rat [10],> 200 mg/kg/day
same,NEL,rat [10],< 200 mg/kg/day
same,NOAEL,rat [10],≥ 200 mg/kg/day
same,LEL,rat [11]; [22],10 mg/kg/day
same,NEL,rat [11]; [22],< 10 mg/kg/day
same,LOAEL,rat [11]; [23],> 200 mg/kg/day
same,NOAEL,rat [11]; [23],≥ 200 mg/kg/day
same,LEL,primate [12],300 mg/kg/day
same,LOAEL,primate [12],> 300 mg/kg/day
same,NEL,primate [12],< 300 mg/kg/day
same,NOAEL,primate [12],≥ 300 mg/kg/day
same,LEL,mouse [13],200 mg/kg/day
same,LOAEL,mouse [13],> 200 mg/kg/day
same,NEL,mouse [13],< 200 mg/kg/day
same,NOAEL,mouse [13],≥ 200 mg/kg/day
same,LOAEL,mouse [14]; [24],> 200 mg/kg/day
same,NOAEL,mouse [14]; [24],≥ 200 mg/kg/day
same,LEL,mouse [14]; [25],50 mg/kg/day
same,NEL,mouse [14]; [25],< 50 mg/kg/day
same,LEL,rat [15],400 mg/kg/day
same,LOAEL,rat [15],> 400 mg/kg/day
same,NEL,rat [15],< 400 mg/kg/day
same,NOAEL,rat [15],≥ 400 mg/kg/day
COc1cc(C(C)C)c2c(c1)S(=O)(=O)N(COc1cc(=O)n3cccc(OCCN4CCCCC4)c3n1)C2=O,LEL,dog,10 mg/kg/day
same,LOAEL,dog,> 100 mg/kg/day
same,NEL,dog,< 10 mg/kg/day
same,NOAEL,dog,≥ 100 mg/kg/day
same,LEL,rat [16]; [26],30 mg/kg/day
same,NEL,rat [16]; [26],< 30 mg/kg/day
same,LOAEL,rat [16]; [27],100 mg/kg/day
same,NOAEL,rat [16]; [27],30 mg/kg/day
